Data set [1] relates to Plasmodium falciparum. The data set is described as follows: Antimalarial activity against chloroquine-sensitive Plasmodium falciparum D6 infected in African green monkey (Cercopithecus aethiops) Vero cells assessed as parasite LDH activity after 72 hrs. The class given is functional, organism-based.
Data set [2] deals with Plasmodium falciparum. The data set is described as follows: Antimalarial activity against chloroquine-resistant Plasmodium falciparum W2 infected in African green monkey (Cercopithecus aethiops) (Cercopithecus aethiops) Vero cells assessed as parasite LDH activity after 72 hrs. The data set is classed as functional, organism-based.
For a further data set, the system named is Vero. The data set can be described thus: Cytotoxicity against african green monkey Vero cells up to 470 nM by neutral red assay. Conditions: chlorocebus sabaeus. The data set is classed as cell-based.
For data set [3], the system named is Candida albicans. The data set can be described thus: Antifungal activity against Candida albicans by modified NCCLS method. The data set is classed as functional, organism-based.
In data set [4] the test system is Cryptococcus neoformans. The data set can be described thus: Antifungal activity against Cryptococcus neoformans by modified NCCLS method. The class given is functional, organism-based.
Data set [5] has as its system Cryptococcus neoformans. The data set is described as follows: Antifungal activity against Cryptococcus neoformans after 24 hrs by alamar blue assay. The class given is functional.
In data set [6] the test system is Mycobacterium intracellulare. The data set can be described thus: Antibacterial activity against Mycobacterium intracellular by alamar blue assay. The data set is classed as functional, organism-based. A general note: The colour change of resazurin is a common sign of viable cells or microbes.
Data set [7] deals with Mycobacterium intracellulare. The data set can be described thus: Antibacterial activity against Mycobacterium intracellular after 24 hrs by alamar blue assay. The class given is functional.
Data set [8] has as its system Aspergillus fumigatus. The data set is described as follows: Antifungal activity against Aspergillus fumigatus by modified NCCLS method. The data set is classed as functional, organism-based.
In another data set the test system is Escherichia coli. The data set is described as follows: Antibacterial activity against Escherichia coli by modified NCCLS method. The class given is functional, organism-based.
The next data set concerns Pseudomonas aeruginosa. The data set can be described thus: Antibacterial activity against Pseudomonas aeruginosa by modified NCCLS method. The class given is functional, organism-based.
Data set [9] concerns Candida albicans.
Description: Antifungal activity against Candida albicans after 24 hrs by alamar blue assay
The subject of data set [10] is Aspergillus fumigatus.
Description: Antifungal activity against Aspergillus fumigatus after 24 hrs by alamar blue assay

The record followed here is ChEMBL document CHEMBL1152671, “Structure-activity relationship studies of manzamine A: amidation of positions 6 and 8 of the beta-carboline moiety” (Bioorg Med Chem, 2009).

Molecules are shown by their SMILES. ≈ marks a conversion by molar mass, not a printed value. Calls of active or inactive are those of the source. The rule behind the calls is not given here.

The term IC50 denotes the concentration that inhibits the measured activity by half. The MIC is the lowest concentration found to suppress growth. As for `CC(C)(C)C(=O)Nc1ccc2[nH]c3c(C4=C[C@@]5(O)CC/C=C\CCCCN6CC[C@@H]4[C@]4(C[C@@H]7/C=C\CCCCN7[C@H]45)C6)nccc3c2c1` [6-PIVALAMIDOANZAMINE A], the IC50 with Plasmodium falciparum [1] is 231 nM; in the data set with Plasmodium falciparum [2] it was 417 nM; in the data set with Candida albicans [3], “Not Active”; in the data set with Cryptococcus neoformans [4], “Not Active”; in data set [6], 1540 nM; in the data set with Aspergillus fumigatus [8] it was “Not Active”. The Activity result with Vero is given as “Non-toxic”. Further, the MIC result with Cryptococcus neoformans [5], in the data set on Candida albicans [9] and in the data set on Aspergillus fumigatus [10] was “inactive” throughout. Also, in data set [7], the MIC was found to be 3.86 µM (≈ 2.5 µg/mL). Moreover, the result in the data set on Escherichia coli and in the data set with Pseudomonas aeruginosa was inactive.
As to `CCCCCC(=O)Nc1ccc2[nH]c3c(C4=C[C@@]5(O)CC/C=C\CCCCN6CC[C@@H]4[C@]4(C[C@@H]7/C=C\CCCCN7[C@H]45)C6)nccc3c2c1` [6-N-HEXAMIDOMANZAMINE A], the IC50 in the data set on Plasmodium falciparum [1] was 680 nM; with Plasmodium falciparum [2] it was 786 nM; with Candida albicans [3], “Not Active”; in the data set with Cryptococcus neoformans [4] it was “Not Active”; in data set [6], 15100 nM; in the data set on Aspergillus fumigatus [8], “Not Active”. For the same compound, in the data set with Vero, the Activity result is on record as “Non-toxic”. The MIC result in the data set on Cryptococcus neoformans [5], with Candida albicans [9] and in the data set on Aspergillus fumigatus [10] was “inactive” each time. The same compound came in with an MIC in [7] of 30.2 µM (≈ 20 µg/mL). In addition, the outcome in the data set on Escherichia coli and with Pseudomonas aeruginosa was inactive.
With `CC(C)(C)C(=O)Nc1cccc2c1[nH]c1c(C3=C[C@@]4(O)CC/C=C\CCCCN5CC[C@@H]3[C@]3(C[C@@H]6/C=C\CCCCN6[C@H]34)C5)nccc12` [8-PIVALAMIDOMANZAMINE A], the IC50 in the data set with Plasmodium falciparum [1] is 170 nM; in the data set on Plasmodium falciparum [2], 232 nM; with Candida albicans [3] it was “Not Active”; with Cryptococcus neoformans [4], “Not Active”; in data set [6] it was 540 nM; in the data set with Aspergillus fumigatus [8], “Not Active”. Moreover, the Activity result with Vero is on record as “Non-toxic”. For the same compound, the MIC entry in the data set on Cryptococcus neoformans [5], in the data set on Candida albicans [9] and in the data set with Aspergillus fumigatus [10] was “inactive” each time. Moreover, in [7], 0.973 µM (≈ 0.63 µg/mL) was the least that counted as inhibitory (MIC). Also, the result in the data set on Escherichia coli and in the data set with Pseudomonas aeruginosa was inactive.
Take `CCCC(=O)Nc1ccc2[nH]c3c(C4=C[C@@]5(O)CC/C=C\CCCCN6CC[C@@H]4[C@]4(C[C@@H]7/C=C\CCCCN7[C@H]45)C6)nccc3c2c1` [6-N-BUTAMIDOMANZAMINE A]: the concentration for half-maximal inhibition (IC50) with Plasmodium falciparum [1] was 1150 nM; with Plasmodium falciparum [2], 1890 nM; in the data set on Candida albicans [3] it was “Not Active”; with Cryptococcus neoformans [4], “Not Active”; in [6], 4740 nM; in the data set with Aspergillus fumigatus [8], “Not Active”. In addition, the Activity result in the data set on Vero is on record as “Non-toxic”. The MIC entry with Cryptococcus neoformans [5], in the data set on Candida albicans [9] and with Aspergillus fumigatus [10] was “inactive” each time. Also, the MIC in [7] was 7.89 µM (≈ 5 µg/mL). The outcome in the data set on Escherichia coli and in the data set with Pseudomonas aeruginosa was inactive.
Turning to `CCCC(=O)Nc1cccc2c1[nH]c1c(C3=C[C@@]4(O)CC/C=C\CCCCN5CC[C@@H]3[C@]3(C[C@@H]6/C=C\CCCCN6[C@H]34)C5)nccc12` [8-N-BUTAMIDOMANZAMINE A], the IC50 in the data set on Plasmodium falciparum [1] was 35 nM; with Plasmodium falciparum [2] it was 121 nM; in the data set with Candida albicans [3], “Not Active”; in the data set with Cryptococcus neoformans [4] (Cryptococcus neoformans, read-out: IC50), 23700 nM; in data set [6], 868 nM; with Aspergillus fumigatus [8], “Not Active”. For the same compound, the Activity entry with Vero is reported as “Non-toxic”. Also, the MIC entry in the data set on Cryptococcus neoformans [5], in the data set on Candida albicans [9] and in the data set with Aspergillus fumigatus [10] was “inactive” in each case. Also, 1.97 µM (≈ 1.25 µg/mL) was the least that counted as inhibitory in data set [7] (MIC). Further, the outcome in the data set with Escherichia coli and in the data set with Pseudomonas aeruginosa was inactive.
